# Target: T1, PARP (Homo sapiens, UniProt P09874)
# T1 construct: purchased Trevigen 4667-050-01
# Assay: Inhibitory experiment against PARP activity
# Type: biochemical
# Conditions: PARP (Trevigen), [14C]NAD, activated DNA, 25° C., 10 minutes; concentration decreasing enzyme activity to 50%
# Method: After mixing well, the contents were warmed to 25° C. in a water bath. After 10 minutes, the reaction was stopped by adding 1 mL of ice-cold 20% trichloroacetic acid and the test tube was left on ice. The precipitates were collected on a glass fiber filter by suction filtration and washed 5 times with 5% trichloroacetic acid. The radioactivity on the filter was measured with liquid scintillation counter.
# T1 sequence (P09874 whole entry): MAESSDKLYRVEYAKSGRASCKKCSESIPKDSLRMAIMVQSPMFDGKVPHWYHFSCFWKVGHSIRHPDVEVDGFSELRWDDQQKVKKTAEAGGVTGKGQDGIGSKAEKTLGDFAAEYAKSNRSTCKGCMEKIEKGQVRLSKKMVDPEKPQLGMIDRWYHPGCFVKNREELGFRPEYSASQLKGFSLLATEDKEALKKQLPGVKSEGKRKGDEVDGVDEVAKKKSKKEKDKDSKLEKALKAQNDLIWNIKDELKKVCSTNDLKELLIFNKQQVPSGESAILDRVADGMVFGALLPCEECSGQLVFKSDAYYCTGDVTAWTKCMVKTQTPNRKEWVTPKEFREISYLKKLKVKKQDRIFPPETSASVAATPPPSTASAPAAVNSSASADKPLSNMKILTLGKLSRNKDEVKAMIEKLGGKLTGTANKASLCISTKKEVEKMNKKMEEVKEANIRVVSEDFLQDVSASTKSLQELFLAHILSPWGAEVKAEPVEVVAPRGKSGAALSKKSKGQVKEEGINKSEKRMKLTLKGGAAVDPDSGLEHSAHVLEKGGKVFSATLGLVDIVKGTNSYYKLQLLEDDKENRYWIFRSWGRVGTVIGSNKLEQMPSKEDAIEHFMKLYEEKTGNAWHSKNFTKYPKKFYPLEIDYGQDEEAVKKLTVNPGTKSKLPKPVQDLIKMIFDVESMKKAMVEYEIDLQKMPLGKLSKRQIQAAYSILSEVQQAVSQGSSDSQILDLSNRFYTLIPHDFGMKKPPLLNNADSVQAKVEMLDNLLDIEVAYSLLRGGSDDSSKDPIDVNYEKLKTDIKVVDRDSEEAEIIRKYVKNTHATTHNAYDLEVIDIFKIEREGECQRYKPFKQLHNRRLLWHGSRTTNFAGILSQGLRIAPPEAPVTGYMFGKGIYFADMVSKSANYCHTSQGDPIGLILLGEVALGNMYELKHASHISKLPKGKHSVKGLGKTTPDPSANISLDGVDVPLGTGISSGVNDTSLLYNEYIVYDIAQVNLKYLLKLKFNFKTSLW
row,SMILES,IC50 [nM]
1,CN(Cc1ccccc1)Cc1ccc(-c2c[nH]c(=O)c3cccc(O)c23)cc1 [Example 12],54
2,CN(CCc1ccccc1)Cc1ccc(-c2c[nH]c(=O)c3cccc(O)c23)cc1 [Example 19],41
3,CN(CCCc1ccccc1)Cc1ccc(-c2c[nH]c(=O)c3cccc(O)c23)cc1 [Example 21],47
4,CN(Cc1ccc(-c2c[nH]c(=O)c3cccc(O)c23)cc1)CC1CCCCC1 [Example 23],126
5,O=c1[nH]cc(-c2ccc(CN3CCCC3)cc2)c2c(O)cccc12 [Example 32],33
6,"O=c1[nH]cc(-c2ccc(CN3CC=C(c4ccccc4)CC3)cc2)c2c(O)cccc12 [Example 61, 1,2-Dihydro-5-hydroxy-1-oxo-4-[4-[(4-phenyl-1,2,3,6-tetrahydropyridine-1-yl)methyl]phenyl]isoquinoline]",20
